Test system: P12-Ichikawa
Assay: cell viability relative to DMSO control; higher = less cytotoxic
Conditions: 48 h
How it was run: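 Viability values are per-plate percentages of DMSO wells, with background from cell-free wells. Library compounds in DMSO were pin-dosed, in an 11-point threefold series from 47 μM to 0.79 nM, onto NOMO1 or SEM (500 cells/well) or P12-Ichikawa (1000 cells/well) leukemia cells in 1536-well plates (5 μl). Those cells had been adapted for at least four passages in each medium, and CellTiter-Glo One luminescence was read after 48 h at 37°C.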

[1] = HPLM + 10% dialyzed FBS, 0.000781 µM
[2] = HPLM + 10% dialyzed FBS, 0.00234 µM
[3] = HPLM + 10% dialyzed FBS, 0.00702 µM
[4] = HPLM + 10% dialyzed FBS, 0.0211 µM
[5] = HPLM + 10% dialyzed FBS, 0.0632 µM
[6] = HPLM + 10% dialyzed FBS, 0.19 µM
[7] = HPLM + 10% dialyzed FBS, 0.569 µM
[8] = HPLM + 10% dialyzed FBS, 1.71 µM
[9] = HPLM + 10% dialyzed FBS, 5.12 µM
[10] = HPLM + 10% dialyzed FBS, 15.4 µM
[11] = HPLM + 10% dialyzed FBS, 46.1 µM
[12] = RPMI 5 mM glucose + 10% FBS, 0.000781 µM
[13] = RPMI 5 mM glucose + 10% FBS, 0.00234 µM
[14] = RPMI 5 mM glucose + 10% FBS, 0.00702 µM
[15] = RPMI 5 mM glucose + 10% FBS, 0.0211 µM
[16] = RPMI 5 mM glucose + 10% FBS, 0.0632 µM
[17] = RPMI 5 mM glucose + 10% FBS, 0.19 µM
[18] = RPMI 5 mM glucose + 10% FBS, 0.569 µM
[19] = RPMI 5 mM glucose + 10% FBS, 1.71 µM
[20] = RPMI 5 mM glucose + 10% FBS, 5.12 µM
[21] = RPMI 5 mM glucose + 10% FBS, 15.4 µM
[22] = RPMI 5 mM glucose + 10% FBS, 46.1 µM
[23] = RPMI 5 mM glucose + 10% dialyzed FBS, 0.000781 µM
[24] = RPMI 5 mM glucose + 10% dialyzed FBS, 0.00234 µM
[25] = RPMI 5 mM glucose + 10% dialyzed FBS, 0.00702 µM
[26] = RPMI 5 mM glucose + 10% dialyzed FBS, 0.0211 µM
[27] = RPMI 5 mM glucose + 10% dialyzed FBS, 0.0632 µM
[28] = RPMI 5 mM glucose + 10% dialyzed FBS, 0.19 µM
[29] = RPMI 5 mM glucose + 10% dialyzed FBS, 0.569 µM
[30] = RPMI 5 mM glucose + 10% dialyzed FBS, 1.71 µM
[31] = RPMI 5 mM glucose + 10% dialyzed FBS, 5.12 µM
[32] = RPMI 5 mM glucose + 10% dialyzed FBS, 15.4 µM
[33] = RPMI 5 mM glucose + 10% dialyzed FBS, 46.1 µM

SMILES	cell viability [1]	cell viability [2]	cell viability [3]	cell viability [4]	cell viability [5]	cell viability [6]	cell viability [7]	cell viability [8]	cell viability [9]	cell viability [10]	cell viability [11]	cell viability [12]	cell viability [13]	cell viability [14]	cell viability [15]	cell viability [16]	cell viability [17]	cell viability [18]	cell viability [19]	cell viability [20]	cell viability [21]	cell viability [22]	cell viability [23]	cell viability [24]	cell viability [25]	cell viability [26]	cell viability [27]	cell viability [28]	cell viability [29]	cell viability [30]	cell viability [31]	cell viability [32]	cell viability [33]
CO[C@@]12[C@H](COC(N)=O)C/3=C(N1C[C@@H]4N[C@H]24)/C(=O)/C(=C(N)\C3=O)C	117%	123%	125%	126%	119%	116%	112%	121%	118%	118%	99.2%	–	–	–	–	–	–	–	–	–	–	–	–	–	–	–	–	–	–	–	–	–	–
Cc1cc(O)c2c(c1)C(=O)c1cccc(O)c1C2=O	112%	119%	119%	127%	121%	137%	128%	133%	122%	113%	87.1%	–	–	–	–	–	–	–	–	–	–	–	–	–	–	–	–	–	–	–	–	–	–
C=C1C(=O)[C@@]23C(CC[C@@H]1[C@H]2O)[C@@]12CO[C@]3(O)[C@@H](O)[C@@H]1C(C)(C)CC[C@@H]2O (some centres undefined)	108%	119%	120%	123%	122%	115%	113%	112%	89.1%	44.7%	3.48%	116%	116%	119%	119%	132%	118%	113%	95.5%	85.7%	16.6%	3.61%	116%	117%	126%	123%	125%	124%	111%	105%	75.6%	21.9%	3.49%
N[S+](=O)([O-])c1cc2c(cc1Cl)NC(C(Cl)Cl)N[S+]2(=O)[O-] (centres undefined)	102%	109%	105%	112%	113%	118%	117%	120%	114%	123%	118%	114%	120%	111%	120%	126%	129%	127%	130%	139%	123%	128%	109%	117%	104%	118%	118%	122%	114%	124%	121%	122%	115%
O=S(=O)([O-])CCS.[Na+]	109%	122%	125%	119%	127%	126%	126%	129%	30.8%	18.1%	15.3%	100%	114%	116%	118%	132%	121%	136%	134%	37%	18.5%	16.7%	114%	121%	121%	120%	130%	131%	135%	139%	80.8%	43.2%	20.1%
CCN1\C=C(\C(O)=O)C(=O)C2=C1N=C(N3CCNCC3)C(=C2)F	75.4%	89.2%	85.8%	94.9%	91.8%	93.7%	94.1%	91.9%	91.4%	92.2%	84.1%	72.1%	82.1%	76%	86.3%	80.7%	81.6%	79.4%	78.4%	85.7%	83.6%	81%	74.1%	82.6%	77.7%	90.3%	84.1%	76.9%	88.7%	83.3%	77.2%	83.4%	95.1%
O=[N+]([O-])c1ncc[nH]1	93.7%	88%	88.2%	83.4%	97%	102%	88.4%	81%	84.5%	75.4%	80.5%	88%	91%	84.6%	84.8%	91.6%	86.9%	78%	74.1%	81%	70.5%	78.8%	88.7%	86.1%	82.7%	98.4%	104%	99.9%	65.7%	78%	98%	71%	80.5%
CN(C)C1=CC(=CC=C1)C\2=C\3C(=O)N(NC3=C/C(=O)N2C)C4=CC=CC=C4Cl	114%	112%	106%	111%	113%	95.8%	90.3%	10.8%	4.69%	4.7%	7.14%	113%	122%	116%	110%	117%	110%	103%	25.7%	9.73%	8.05%	15.8%	122%	114%	114%	112%	120%	109%	102%	41.3%	21.1%	16.6%	23.9%
CC[C@@H]1[C@@H](C)O[C@@](O)([C@@H](C)[C@H](O)[C@H](C)[C@H]2OC(=O)/C=C/C=C/[C@H](C)[C@@H]([C@@H](C)[C@@H](O)[C@H](C)[C@@]3(O)C[C@@H](O[C@H]4C[C@H](O)[C@H](O)[C@H](C)O4)[C@H](CC)[C@@H](C)O3)OC(=O)/C=C/C=C/[C@@H]2C)C[C@H]1O[C@H]1C[C@H](O)[C@H](O)[C@H](C)O1	–	–	–	–	–	–	–	–	–	–	–	–	–	–	–	–	–	–	–	–	–	–	117%	121%	115%	131%	126%	127%	142%	139%	7.66%	60.8%	2.82%
O=C(Nc1nnc(-c2ccco2)o1)c1cc(-c2ccccc2)nc2ccccc12	113%	99.3%	103%	116%	113%	110%	116%	109%	44.4%	3.09%	3.16%	104%	105%	115%	110%	116%	113%	118%	119%	117%	97.8%	6.52%	95.7%	99.8%	99.2%	94.2%	108%	105%	100%	105%	102%	93.2%	7.67%
CC(C)=CCC/C(C)=C/CC/C(C)=C/CSc1ccccc1C(=O)O	103%	121%	117%	113%	119%	105%	91.2%	83.7%	90.6%	61%	36.4%	106%	106%	111%	95.7%	101%	90%	82.1%	67.3%	60%	47.9%	34.4%	104%	112%	120%	116%	98.1%	97.2%	99.5%	76.4%	75.2%	60%	39.8%
COc1cc([C@@H]2c3cc4c(cc3[C@H](O)[C@H]3COC(=O)[C@@H]23)OCO4)cc(OC)c1OC	84.1%	93.9%	95.1%	104%	100%	77.6%	30.8%	14.3%	8.67%	5.39%	4.89%	94.5%	95.3%	96.5%	95.7%	98.7%	83.2%	34.1%	20.9%	8.85%	5.8%	4.88%	86.9%	95.1%	101%	94.3%	97.6%	91.2%	43.9%	22.7%	15%	10.4%	5.7%
N\C1=N\C2=C(N=C[N]2COCCO)C(=O)N1	98.2%	109%	106%	107%	111%	112%	111%	112%	109%	105%	91.3%	93.7%	112%	106%	115%	110%	99.4%	110%	106%	106%	92.3%	84.6%	97.2%	97.8%	111%	98.2%	105%	97.3%	110%	94.7%	98.9%	102%	85.1%
CC1=C(/C=C/C(C)=C/C=C/C(C)=C\C(=O)O)C(C)(C)CCC1	88.5%	91.7%	90.2%	93.4%	95.7%	92.6%	96.4%	92.2%	97.3%	95.5%	91.3%	76.1%	88.5%	82.7%	91%	85.5%	89.7%	85.4%	79.6%	77.4%	84.5%	82.1%	80.4%	89.9%	85%	90%	86.7%	86.7%	91.9%	90.5%	83.7%	84.5%	85.4%
CC1(CN2CCC(n3c(=O)[nH]c4ccccc43)CC2)OCc2ccccc2-n2cccc21 (centres undefined)	99.7%	97.6%	105%	98.7%	102%	104%	94.4%	99.9%	99%	99.6%	92.8%	96%	99.9%	93.1%	94.8%	98.3%	98.5%	106%	109%	102%	96.8%	87.9%	94%	92.5%	96.4%	97.2%	97.7%	99.2%	94%	93.8%	98.7%	94.3%	98.5%

Reference: the supplement of paper PMC11451515
